Assay results from patent publication US20220281848A1, “PYRAZOLE-SUBSTITUTED PYRROLIDINONES AS HERBICIDES” (FMC Corporation, priority 2019, published 2022).

Tested on: plants
Experiment: Test D pre-emergence, other plants of Tables D1 and D3
Assay type: in vivo
Conditions: for damage to plant (100=total damage to plant; 0=no damage to plant), ABUTH / damage to plant (100=total damage to plant; 0=no damage to plant), BIDPI / damage to plant (100=total damage to plant; 0=no damage to plant), BRAPL / damage to plant (100=total damage to plant; 0=no damage to plant), CYPES / damage to plant (100=total damage to plant; 0=no damage to plant), DIGSA / damage to plant (100=total damage to plant; 0=no damage to plant), ECHCG / damage to plant (100=total damage to plant; 0=no damage to plant), ELEIN / damage to plant (100=total damage to plant; 0=no damage to plant), EPHHL / damage to plant (100=total damage to plant; 0=no damage to plant), GLXMA / damage to plant (100=total damage to plant; 0=no damage to plant), IPOHE / damage to plant (100=total damage to plant; 0=no damage to plant), ORYSA / damage to plant (100=total damage to plant; 0=no damage to plant), PANMI / damage to plant (100=total damage to plant; 0=no damage to plant), SETFA / damage to plant (100=total damage to plant; 0=no damage to plant), SIDSP / damage to plant (100=total damage to plant; 0=no damage to plant), SORVU: preemergent, 20 DAA
Method in brief: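 Seeds treated with herbicide safener; sown in soil; glasshouse, 16 h light, 65% humidity. Sprayed day 1 (pre) or ~day 12 (post). Spray in 0.2% v/v adjuvant. Scored 0–100 damage: 20 DAA pre, 15 d post.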

[1] = pre-emergence, rate 15, 20 DAA, 100=total damage, 0=no damage

## CCn1nc([C@H]2CN(C)C(=O)[C@@H]2C(=O)Nc2cccc(F)c2F)c2ccc(F)cc21 [Compound 4]
Rate 15
  damage to plant (100=total damage to plant; 0=no damage to plant), ABUTH: 0
  damage to plant (100=total damage to plant; 0=no damage to plant), BIDPI: 0
  damage to plant (100=total damage to plant; 0=no damage to plant), BRAPL: 40
  damage to plant (100=total damage to plant; 0=no damage to plant), CYPES: 0
  damage to plant (100=total damage to plant; 0=no damage to plant), DIGSA: 0
  damage to plant (100=total damage to plant; 0=no damage to plant), ECHCG: 0
  damage to plant (100=total damage to plant; 0=no damage to plant), ELEIN: 0
  damage to plant (100=total damage to plant; 0=no damage to plant), EPHHL: 0
  damage to plant (100=total damage to plant; 0=no damage to plant), GLXMA: 0
  damage to plant (100=total damage to plant; 0=no damage to plant), IPOHE: 0
  damage to plant (100=total damage to plant; 0=no damage to plant), ORYSA: 0
  damage to plant (100=total damage to plant; 0=no damage to plant), PANMI: 0
  damage to plant (100=total damage to plant; 0=no damage to plant), SETFA: 10
  damage to plant (100=total damage to plant; 0=no damage to plant), SIDSP: 0
  damage to plant (100=total damage to plant; 0=no damage to plant), SORVU: 0
Rate 30
  damage to plant (100=total damage to plant; 0=no damage to plant), ABUTH: 0
  damage to plant (100=total damage to plant; 0=no damage to plant), BIDPI: 0
  damage to plant (100=total damage to plant; 0=no damage to plant), BRAPL: 40
  damage to plant (100=total damage to plant; 0=no damage to plant), CYPES: 0
  damage to plant (100=total damage to plant; 0=no damage to plant), DIGSA: 60
  damage to plant (100=total damage to plant; 0=no damage to plant), ECHCG: 40
  damage to plant (100=total damage to plant; 0=no damage to plant), ELEIN: 0
  damage to plant (100=total damage to plant; 0=no damage to plant), EPHHL: 0
  damage to plant (100=total damage to plant; 0=no damage to plant), GLXMA: 0
  damage to plant (100=total damage to plant; 0=no damage to plant), IPOHE: 0
  damage to plant (100=total damage to plant; 0=no damage to plant), ORYSA: 0
  damage to plant (100=total damage to plant; 0=no damage to plant), PANMI: 0
  damage to plant (100=total damage to plant; 0=no damage to plant), SETFA: 70
  damage to plant (100=total damage to plant; 0=no damage to plant), SIDSP: 0
  damage to plant (100=total damage to plant; 0=no damage to plant), SORVU: 0
Rate 60
  damage to plant (100=total damage to plant; 0=no damage to plant), ABUTH: 0
  damage to plant (100=total damage to plant; 0=no damage to plant), BIDPI: 0
  damage to plant (100=total damage to plant; 0=no damage to plant), BRAPL: 60
  damage to plant (100=total damage to plant; 0=no damage to plant), CYPES: 0
  damage to plant (100=total damage to plant; 0=no damage to plant), DIGSA: 80
  damage to plant (100=total damage to plant; 0=no damage to plant), ECHCG: 80
  damage to plant (100=total damage to plant; 0=no damage to plant), EPHHL: 0
  damage to plant (100=total damage to plant; 0=no damage to plant), GLXMA: 0
  damage to plant (100=total damage to plant; 0=no damage to plant), IPOHE: 0
  damage to plant (100=total damage to plant; 0=no damage to plant), ORYSA: 0
  damage to plant (100=total damage to plant; 0=no damage to plant), PANMI: 0
  damage to plant (100=total damage to plant; 0=no damage to plant), SETFA: 70
  damage to plant (100=total damage to plant; 0=no damage to plant), SIDSP: 0
  damage to plant (100=total damage to plant; 0=no damage to plant), SORVU: 10
Rate 130
  damage to plant (100=total damage to plant; 0=no damage to plant), ABUTH: 0
  damage to plant (100=total damage to plant; 0=no damage to plant), BIDPI: 0
  damage to plant (100=total damage to plant; 0=no damage to plant), BRAPL: 80
  damage to plant (100=total damage to plant; 0=no damage to plant), CYPES: 0
  damage to plant (100=total damage to plant; 0=no damage to plant), DIGSA: 90
  damage to plant (100=total damage to plant; 0=no damage to plant), ECHCG: 90
  damage to plant (100=total damage to plant; 0=no damage to plant), EPHHL: 0
  damage to plant (100=total damage to plant; 0=no damage to plant), GLXMA: 0
  damage to plant (100=total damage to plant; 0=no damage to plant), IPOHE: 0
  damage to plant (100=total damage to plant; 0=no damage to plant), ORYSA: 0
  damage to plant (100=total damage to plant; 0=no damage to plant), PANMI: 0
  damage to plant (100=total damage to plant; 0=no damage to plant), SETFA: 80
  damage to plant (100=total damage to plant; 0=no damage to plant), SORVU: 10
Rate 250
  damage to plant (100=total damage to plant; 0=no damage to plant), ABUTH: 0
  damage to plant (100=total damage to plant; 0=no damage to plant), BIDPI: 0
  damage to plant (100=total damage to plant; 0=no damage to plant), BRAPL: 90
  damage to plant (100=total damage to plant; 0=no damage to plant), CYPES: 0
  damage to plant (100=total damage to plant; 0=no damage to plant), DIGSA: 90
  damage to plant (100=total damage to plant; 0=no damage to plant), ECHCG: 90
  damage to plant (100=total damage to plant; 0=no damage to plant), ELEIN: 10
  damage to plant (100=total damage to plant; 0=no damage to plant), EPHHL: 0
  damage to plant (100=total damage to plant; 0=no damage to plant), GLXMA: 0
  damage to plant (100=total damage to plant; 0=no damage to plant), IPOHE: 0
  damage to plant (100=total damage to plant; 0=no damage to plant), ORYSA: 0
  damage to plant (100=total damage to plant; 0=no damage to plant), PANMI: 20
  damage to plant (100=total damage to plant; 0=no damage to plant), SETFA: 90
  damage to plant (100=total damage to plant; 0=no damage to plant), SORVU: 40
Rate 500
  damage to plant (100=total damage to plant; 0=no damage to plant), ABUTH: 0
  damage to plant (100=total damage to plant; 0=no damage to plant), BIDPI: 0
  damage to plant (100=total damage to plant; 0=no damage to plant), BRAPL: 90
  damage to plant (100=total damage to plant; 0=no damage to plant), CYPES: 0
  damage to plant (100=total damage to plant; 0=no damage to plant), DIGSA: 90
  damage to plant (100=total damage to plant; 0=no damage to plant), ECHCG: 90
  damage to plant (100=total damage to plant; 0=no damage to plant), ELEIN: 10
  damage to plant (100=total damage to plant; 0=no damage to plant), EPHHL: 10
  damage to plant (100=total damage to plant; 0=no damage to plant), GLXMA: 0
  damage to plant (100=total damage to plant; 0=no damage to plant), IPOHE: 10
  damage to plant (100=total damage to plant; 0=no damage to plant), ORYSA: 0
  damage to plant (100=total damage to plant; 0=no damage to plant), PANMI: 40
  damage to plant (100=total damage to plant; 0=no damage to plant), SETFA: 90
  damage to plant (100=total damage to plant; 0=no damage to plant), SIDSP: 0
  damage to plant (100=total damage to plant; 0=no damage to plant), SORVU: 50
[1]
  damage to plant, ALOMY: 0
  damage to plant, AVEFA: 0
